These results are taken from ChEMBL document CHEMBL1153134, “Dammarane-type saponins from the flower buds of Panax ginseng and their effects on human leukemia cells” (Bioorg Med Chem Lett, 2010).

Activity calls are given as the source filed them. No cut-off for these calls is given here.

Test [1] deals with HL-60. The test is described as follows: Cytotoxicity against human HL60 cells by MTT assay. Type of test: functional, cell-based. On the technique in general: Tetrazolium assays rely on reduction of a dye to a coloured formazan, in cell work by metabolically active cells.
Test [2] concerns HL-60. Put plainly: Induction of apoptosis in human HL60 cells assessed as DNA accumulation at sub-G1 phase at IC50 concentration after 24 hrs by flow cytometry. Type of test: functional. For orientation: Flow cytometry measures light scatter and fluorescence of single cells or particles in a stream.
In test [3] the test system is HL-60. The test is described as follows: Induction of apoptosis in human HL60 cells assessed as increase of apoptotic bodies at IC50 concentration after 24 hrs using Hoechst 33342 staining by fluorescent microscopic analysis. Type of test: functional, cell-based.
In another test the test system is HaCaT. The test is described as follows: Inhibition of ultraviolet-B-induced apoptosis in human HaCaT cells. Type of test: functional, cell-based.

A word on the IC50: it is the concentration needed to halve the response being measured. Low values mean inhibition by little substance, high ones a need for much substance. Compound `C=C(C)C(=O)CC[C@](C)(O[C@@H]1O[C@H](CO)[C@@H](O)[C@H](O)[C@H]1O)[C@H]1CC[C@]2(C)[C@@H]1[C@H](O)C[C@@H]1[C@@]3(C)CC[C@H](O)C(C)(C)[C@@H]3[C@@H](O)C[C@]12C` [FLORALGINSENOSIDE TA] returned an IC50 in the test on HL-60 [1] of 36.3 µM. The Activity with HL-60 [2] was 29.8%. For the same compound, the outcome in the test on HL-60 [3] was Active.
`COC(CC[C@](C)(O[C@@H]1O[C@H](CO)[C@@H](O)[C@H](O)[C@H]1O)[C@H]1CC[C@]2(C)[C@@H]1[C@H](O)C[C@@H]1[C@@]3(C)CC[C@H](O)C(C)(C)[C@@H]3[C@@H](O)C[C@]12C)OC` [FLORALGINSENOSIDE TB] returned an IC50 in the test with HL-60 [1] of 100 µM.
On the same count and under the same terms, in the case of `C=C(C)C(CC[C@](C)(O[C@@H]1O[C@H](CO[C@@H]2OC[C@H](O)[C@H](O)[C@H]2O)[C@@H](O)[C@H](O)[C@H]1O)[C@H]1CC[C@]2(C)[C@@H]1[C@H](O)C[C@@H]1[C@@]3(C)CC[C@H](O[C@@H]4O[C@H](CO[C@@H]5O[C@H](CO)[C@@H](O)[C@H](O)[C@H]5O)[C@@H](O)[C@H](O)[C@H]4O)C(C)(C)[C@@H]3[C@@H](O)C[C@]12C)OO` (some centres undefined) [FLORALGINSENOSIDE TC] it was 100 µM; in that of `C=C(C)C(CC[C@](C)(O[C@@H]1O[C@H](COC2OC[C@H](O)[C@H](O)[C@H]2O)[C@@H](O)[C@H](O)[C@H]1O)[C@H]1CC[C@]2(C)[C@@H]1[C@H](O)C[C@@H]1[C@@]3(C)CC[C@H](O[C@@H]4O[C@H](COC5O[C@H](CO)[C@@H](O)[C@H](O)[C@H]5O)[C@@H](O)[C@H](O)[C@H]4O)C(C)(C)[C@@H]3[C@@H](O)C[C@]12C)OO` (some centres undefined) [FLORALGINSENOSIDE TD], 100 µM.
With `CC(C)=CCC[C@](C)(O[C@@H]1O[C@H](CO)[C@@H](O)[C@H](O)[C@H]1O)[C@H]1CC[C@]2(C)[C@@H]1[C@H](O)C[C@@H]1[C@@]3(C)CC[C@H](O)C(C)(C)[C@@H]3[C@@H](O)C[C@]12C` [GINSENOSIDE F1], it took 23.2 µM to reach half-maximal inhibition with HL-60 [1] (IC50). The result in the test on HaCaT and in the test with HL-60 [3] was Active. The Activity in the test with HL-60 [2] turned out to be 19.2%.
Consider `CC(C)=CCC[C@](C)(O[C@@H]1O[C@H](CO[C@H]2O[C@H](CO)[C@@H](O)[C@@H]2O)[C@@H](O)[C@H](O)[C@H]1O)[C@H]1CC[C@]2(C)[C@@H]1[C@H](O)C[C@@H]1[C@@]3(C)CC[C@H](O)C(C)(C)[C@@H]3[C@@H](O)C[C@]12C` [GINSENOSIDE F5], for which the IC50 with HL-60 [1] came out at 62.4 µM. For the same compound, the Activity in the test on HL-60 [2] is reported as 21.4%. Besides, the outcome with HL-60 [3] was Active.
As to `O=C1c2c(O)ccc(O)c2C(=O)c2c(NCCNCCO)ccc(NCCNCCO)c21` [MITOXANTRONE], it took 6.8 µM to reach half-maximal inhibition in the test on HL-60 [1] (IC50).
